From ChEMBL document CHEMBL5126607, “Discovery and In Vivo Evaluation of ACT-660602: A Potent and Selective Antagonist of the Chemokine Receptor CXCR3 for Autoimmune Diseases” (J Med Chem, 2022) come the findings set out here.

In series [1] the target is Voltage-gated inwardly rectifying potassium channel KCNH2 (Homo sapiens, UniProt Q12809). Kind of series: Inhibition of hERG expressed in CHO cells by Q patch-clamp method.
The nature of series [2]: in vitro. To be noted: human.
The target in series [3] is T1, C-X-C chemokine receptor type 3 (Homo sapiens, UniProt P49682).
T1 sequence (P49682 whole entry): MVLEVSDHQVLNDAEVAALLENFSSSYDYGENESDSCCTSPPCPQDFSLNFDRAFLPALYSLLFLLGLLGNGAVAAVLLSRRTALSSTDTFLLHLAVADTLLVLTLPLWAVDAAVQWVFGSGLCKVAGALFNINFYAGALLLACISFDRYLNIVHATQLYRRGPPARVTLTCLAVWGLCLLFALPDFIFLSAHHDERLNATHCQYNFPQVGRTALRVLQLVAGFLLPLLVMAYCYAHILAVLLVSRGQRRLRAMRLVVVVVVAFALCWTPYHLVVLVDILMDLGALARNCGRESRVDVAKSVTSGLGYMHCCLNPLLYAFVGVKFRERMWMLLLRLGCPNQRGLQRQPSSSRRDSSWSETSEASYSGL
Description: Antagonist activity at recombinant human CXCR3 expressed in human CHO-K1 cells co-expressing Galpha15 incubated for 10 mins by Fluo-4AM dye based FLIPR assay

Series [4] has as its target T1, C-X-C chemokine receptor type 3. The source holds these as a separate data set.
Description: Antagonist activity at recombinant human CXCR3 in human U2SO cells assessed as reduction in CXCL10-induced beta-arrestin recruitment by TANGO assay
Series [5] shares this target. The source holds these as a separate data set.
Description: Inhibition of CXCR3 receptor internalization in human venous whole blood incubated for 30 mins by flow cytometer analysis
The target in series [6] is hERG (Homo sapiens, UniProt Q12809). Kind of series: Inhibition of hERG expressed in CHO cells 10 uM at by Q patch-clamp method relative to control.
Series [7] can be described thus: Lipophilicity, log D of the compound at pH 7.4. The settings on record: buffer.
For series [8] the following is noted: human, microsomes, 1 µM.

Chain of Voltage-gated inwardly rectifying potassium channel KCNH2 (Q12809 whole entry): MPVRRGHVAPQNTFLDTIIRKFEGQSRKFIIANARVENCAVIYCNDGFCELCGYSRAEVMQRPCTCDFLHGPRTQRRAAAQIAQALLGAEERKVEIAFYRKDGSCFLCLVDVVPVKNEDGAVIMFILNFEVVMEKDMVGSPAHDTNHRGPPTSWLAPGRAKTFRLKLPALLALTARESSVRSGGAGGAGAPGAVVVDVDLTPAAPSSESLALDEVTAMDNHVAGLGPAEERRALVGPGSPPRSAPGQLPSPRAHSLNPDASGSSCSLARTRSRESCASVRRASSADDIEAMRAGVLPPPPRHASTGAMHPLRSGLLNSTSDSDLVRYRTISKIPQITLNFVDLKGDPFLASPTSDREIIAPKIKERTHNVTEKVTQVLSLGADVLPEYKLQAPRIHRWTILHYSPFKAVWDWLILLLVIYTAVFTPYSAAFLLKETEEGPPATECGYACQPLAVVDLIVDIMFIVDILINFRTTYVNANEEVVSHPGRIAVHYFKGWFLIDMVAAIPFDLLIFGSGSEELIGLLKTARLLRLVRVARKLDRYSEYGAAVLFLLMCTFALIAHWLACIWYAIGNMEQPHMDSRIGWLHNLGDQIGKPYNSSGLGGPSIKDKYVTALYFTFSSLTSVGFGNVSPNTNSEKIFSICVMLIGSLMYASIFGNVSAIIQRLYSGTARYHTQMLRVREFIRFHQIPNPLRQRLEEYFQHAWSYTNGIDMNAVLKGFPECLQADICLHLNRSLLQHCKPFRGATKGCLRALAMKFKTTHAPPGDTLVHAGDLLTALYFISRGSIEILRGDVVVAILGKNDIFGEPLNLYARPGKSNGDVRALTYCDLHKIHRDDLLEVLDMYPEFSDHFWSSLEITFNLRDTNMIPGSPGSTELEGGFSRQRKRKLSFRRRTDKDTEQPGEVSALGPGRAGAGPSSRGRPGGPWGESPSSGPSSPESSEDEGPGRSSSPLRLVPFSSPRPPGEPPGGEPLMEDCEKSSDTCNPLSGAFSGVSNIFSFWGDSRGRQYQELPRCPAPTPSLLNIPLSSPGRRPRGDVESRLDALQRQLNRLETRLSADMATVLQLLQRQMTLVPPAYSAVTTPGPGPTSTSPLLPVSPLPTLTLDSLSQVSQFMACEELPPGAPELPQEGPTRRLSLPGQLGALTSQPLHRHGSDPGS
Chain of hERG (Q12809 whole entry): as above

With `CCc1ncc(-c2nc(C(F)(F)F)sc2N2CCN(C(=O)Cn3nc(C)nc3C)[C@H](C)C2)cn1`, in series [1], the half-maximal inhibitory concentration (IC50) is > 20 µM.
`CCOc1ncc(-c2nc(C(F)(F)F)sc2N2CCN(C(=O)Cn3ccc(C(F)(F)F)n3)[C@H](C)C2)cn1` yielded an intrinsic metabolic clearance (microsomal CLint) at 1 µM in series [2] (microsomes) of 20 µL/min/mg. The IC50 in series [3] stood at 0.0038 µM; in series [4], 0.093 µM; in series [1] it was 5.1 µM; in series [5], 0.09 µM.
`C[C@@H]1CN(c2sc(Br)nc2-c2nc3ccccc3[nH]2)CCN1C(=O)Cn1cnc2cccnc21`: the 50% inhibitory concentration (IC50) in series [3] worked out at 0.0028 µM; in series [4], 0.126 µM; in series [1], 0.34 µM; in series [5] it was 0.526 µM.
Molecule `C[C@@H]1CN(c2sc(C3COC3)nc2-c2nc3ccccc3[nH]2)CCN1C(=O)Cn1cnc2cccnc21` returned an intrinsic metabolic clearance (microsomal CLint) at 1 µM in series [2] (microsomes) of 38 µL/min/mg. Also, the IC50 in series [3] was 0.053 µM; in series [4], 6.22 µM; in series [1], 4.4 µM; in series [5], 1.15 µM.
For the molecule `COCCOc1ncc(-c2nc(C(F)(F)F)sc2N2CCN(C(=O)Cn3cnc4cccnc43)[C@H](C)C2)cn1`, the IC50 in series [1] was > 20 µM. Further, the inhibition at 10 µM in series [6] is 17%.
Consider `COc1ncc(-c2nc(C(F)(F)F)sc2N2CCN(C(=O)Cn3nc(C)nc3C)[C@H](C)C2)cn1`, for which the concentration for half-maximal inhibition (IC50) in series [1] was > 20 µM.
As for `C[C@@H]1CN(c2sc(CN(C)C)nc2-c2nc3ccccc3[nH]2)CCN1C(=O)Cn1cnc2cccnc21`, in series [2] (microsomes), the microsomal CLint at 1 µM turned out to be 44 µL/min/mg. Besides, the IC50 in series [3] worked out at 0.05 µM; in series [4], 2.36 µM; in series [1], 20 µM; in series [5] it was 1.15 µM. At 10 µM the inhibition in series [6] was 28%.
The molecule `O=C(Cn1cnc2cccnc21)N1CCN(c2ncsc2-c2nc3ccccc3[nH]2)CC1` showed an IC50 in series [3] of 4.2 µM.
In turn, `Cc1ncc(-c2nc(C(F)(F)F)sc2N2CCN(C(=O)Cn3cnc4cccnc43)[C@H](C)C2)cn1` registered a 50% inhibitory concentration (IC50) in series [1] of 15 µM. In series [6], the inhibition at 10 µM worked out at 40%.
Turning to `CCOc1ncc(-c2nc(C(F)(F)F)sc2N2CCN(C(=O)Cn3cc(Cl)cn3)[C@H](C)C2)cn1`, the IC50 in series [1] turned out to be 2.8 µM.
In series [2] (microsomes), `CCOc1ccc(-c2nc(C(F)(F)F)sc2N2CCN(C(=O)Cn3nc(C)nc3C)[C@H](C)C2)cn1` came in with an intrinsic clearance (microsomal CLint) at 1 µM of 66 µL/min/mg. Besides, the 50% inhibitory concentration (IC50) in series [3] is 0.0088 µM; in series [4], 0.505 µM; in series [1], > 20 µM; in series [5] it was 0.887 µM.
On to `Cc1nc(C)n(CC(=O)N2CCN(c3sc(C(F)(F)F)nc3-c3cnc(C(C)(C)C)nc3)C[C@H]2C)n1`, for which the 50% inhibitory concentration (IC50) in series [1] was > 20 µM.
In turn, `O=C(Nc1cccnc1N1CCN(C(=O)Cn2cnc3cccnc32)CC1)c1cccc(Cl)c1` returned a 50% inhibitory concentration (IC50) in series [3] of 0.0042 µM.
Consider `Cc1nc(C)n(CC(=O)N2CCN(c3sc(C(F)(F)F)nc3-c3ccc(C(F)(F)F)nc3)C[C@H]2C)n1`, for which the microsomal CLint at 1 µM in series [2] (microsomes) is < 10 µL/min/mg. For the same molecule, the IC50 was 0.0042 µM in series [3], 0.608 µM in series [4], 5.2 µM in series [1] and 0.86 µM in series [5].
Consider `O=C(Nc1ccccc1N1CCN(C(=O)Cn2cnc3cccnc32)CC1)c1cccc(Cl)c1`, for which the IC50 in series [3] amounted to 0.0016 µM.
Consider `C[C@@H]1CN(c2sc(C3CC3)nc2-c2nc3ccccc3[nH]2)CCN1C(=O)Cn1cnc2cccnc21`, for which the IC50 in series [3] came out at 0.0097 µM; in series [4], 0.745 µM; in series [1], 0.38 µM; in series [5] it was 0.994 µM.
`Cc1nc(C)n(CC(=O)N2CCN(c3sc(C(F)(F)F)nc3-c3cnc(N4CCCC4)nc3)C[C@H]2C)n1`: the concentration for half-maximal inhibition (IC50) in series [3] is 0.0035 µM; in series [4] it was 0.523 µM; in series [1], > 20 µM; in series [5], 0.352 µM.
On to `CCOc1ncc(-c2nc(C(F)(F)F)sc2N2CCN(C(=O)CN3C(=O)Cc4ccccc43)[C@H](C)C2)cn1`, for which it took 3 µM to reach half-maximal inhibition in series [1] (IC50).
On the same count and under the same terms, in the case of `COc1ccc(-c2nc(C(F)(F)F)sc2N2CCN(C(=O)Cn3nc(C)nc3C)[C@H](C)C2)cn1` it was > 20 µM; in that of `CCOc1ncc(-c2nc(C(F)(F)F)sc2N2CCN(C(=O)Cn3ccc4cnccc43)[C@H](C)C2)cn1`, 0.57 µM.
For `Cc1nc(-c2nc3ccccc3[nH]2)c(N2CCN(C(=O)Cn3cnc4cccnc43)[C@H](C)C2)s1`, the microsomal CLint at 1 µM in series [2] (microsomes) came to 23 µL/min/mg. Also, the IC50 in series [3] came to 0.009 µM; in series [4] it was 1.05 µM; in series [1], 2.6 µM; in series [5], 1.06 µM.
For `O=C(Cn1cnc2cccnc21)N1CCN(c2ccccc2-c2nc3ccccc3[nH]2)CC1`, the half-maximal inhibitory concentration (IC50) in series [3] came to 0.0043 µM; in series [5] it was 0.23 µM.
Turning to `CCOc1ncc(-c2nc(C(F)(F)F)sc2N2CCN(C(=O)Cn3ccc4cccnc43)[C@H](C)C2)cn1`, it took 4.2 µM to reach half-maximal inhibition in series [1] (IC50).
For the molecule `CCOc1ncc(-c2nc(C(F)(F)F)sc2N2CCN(C(=O)Cn3c(=O)oc4ccccc43)[C@H](C)C2)cn1`, the IC50 was 0.0033 µM in series [3], 0.099 µM in series [4], 2.2 µM in series [1] and 0.536 µM in series [5].
The molecule `CCCc1ncc(-c2nc(C(F)(F)F)sc2N2CCN(C(=O)Cn3cnc4cccnc43)[C@H](C)C2)cn1` came in with a 50% inhibitory concentration (IC50) in series [1] of 5.9 µM. Also, the inhibition at 10 µM in series [6] was 57%.
`CCOc1ncc(-c2nc(C(F)(F)F)sc2N2CCN(C(=O)Cn3ncc4cccnc43)[C@H](C)C2)cn1` showed an IC50 in series [1] of 15 µM.
On the same count and under the same terms, the result for `Cc1ncc(-c2nc(C(F)(F)F)sc2N2CCN(C(=O)Cn3nc(C)nc3C)[C@H](C)C2)cn1` reads > 20 µM.
In the case of `CC[C@@H]1CN(c2scnc2-c2nc3ccccc3[nH]2)CCN1C(=O)Cn1cnc2cccnc21`, the IC50 is 0.0039 µM in series [3], 0.604 µM in series [4] and 0.75 µM in series [1].
With `CCCc1ncc(-c2nc(C(F)(F)F)sc2N2CCN(C(=O)Cn3nc(C)nc3C)[C@H](C)C2)cn1`, in series [2] (microsomes), the microsomal CLint at 1 µM came to 80 µL/min/mg. The half-inhibitory concentration (IC50) is 0.0044 µM in series [3], 0.258 µM in series [4], > 20 µM in series [1] and 0.367 µM in series [5].
Take `C[C@H]1CN(c2scnc2-c2nc3ccccc3[nH]2)CCN1C(=O)Cn1cnc2cccnc21`: the results for the half-maximal inhibitory concentration (IC50) in series [3], in series [4] and in series [1] were 0.067 µM, 8.03 µM and 0.63 µM, respectively.
In series [2] (microsomes), `Cc1nc(C)n(CC(=O)N2CCN(c3sc(C(F)(F)F)nc3-c3cnc(OC4CCC4)nc3)C[C@H]2C)n1` gave a microsomal CLint at 1 µM of 51 µL/min/mg. This molecule displayed a logD in series [7] of 3.6. The 50% inhibitory concentration (IC50) in series [3] was 0.004 µM; in series [4], 0.078 µM; in series [1] it was > 20 µM; in series [5] it was 0.306 µM.
In the case of `CCc1nc(-c2nc3ccccc3[nH]2)c(N2CCN(C(=O)Cn3cnc4cccnc43)[C@H](C)C2)s1`, the microsomal CLint at 1 µM in series [2] (liver microsomes) is 88 µL/min/mg.
The molecule `COc1ccc(-c2nc(C(F)(F)F)sc2N2CCN(C(=O)Cn3cnc4cccnc43)[C@H](C)C2)cc1` registered an IC50 in series [1] of 8.8 µM. Moreover, the inhibition at 10 µM in series [6] was found to be 53%.
Consider `Cc1nc(C)n(CC(=O)N2CCN(c3sc(C(F)(F)F)nc3-c3cnc(C4CC4)nc3)C[C@H]2C)n1`, for which the intrinsic clearance (microsomal CLint) at 1 µM in series [2] (microsomes) was < 10 µL/min/mg. The IC50 in series [3] came to 0.0035 µM; in series [4], 0.349 µM; in series [1], 13 µM; in series [5] it was 0.674 µM.
In the case of `C[C@@H]1CN(c2sc(C(F)(F)F)nc2-c2cnc(OCCN(C)C)nc2)CCN1C(=O)Cn1cnc2cccnc21`, the IC50 in series [3] is 0.0067 µM; in series [4], 0.14 µM; in series [1] it was > 20 µM; in series [5], 0.381 µM. The molecule further yielded an inhibition at 10 µM in series [6] of 25%. This molecule also came in with a CLH in series [8] of 1.74 mL/h/kg.
For `O=C(Cn1cnc2cccnc21)N1CCN(c2scnc2-c2nc3ccccc3[nH]2)CC1`, the figures for the IC50 in series [3] and in series [5] were 0.03 µM and 1.44 µM, respectively.
`COc1ncc(-c2nc(C(F)(F)F)sc2N2CCN(C(=O)Cn3cnc4cccnc43)[C@H](C)C2)cn1`: the concentration for half-maximal inhibition (IC50) in series [3] is 0.0038 µM; in series [4], 0.177 µM; in series [1], > 20 µM; in series [5] it was 0.158 µM. Further, 10 µM produced 19% inhibition in series [6]. Also, the CLH in series [8] was found to be 0.84 mL/h/kg.
With `CCOc1ncc(-c2nc(C(F)(F)F)sc2N2CCN(C(=O)Cn3nc(C)cc3C)[C@H](C)C2)cn1`, the microsomal CLint at 1 µM in series [2] (microsomes) turned out to be 184 µL/min/mg. Also, the logD in series [7] was 3.7. In addition, the IC50 in series [3] was found to be 0.0023 µM; in series [4], 0.087 µM; in series [1], 13 µM; in series [5], 0.06 µM.
Regarding `CCOc1ncc(-c2nc(C(F)(F)F)sc2N2CCN(C(=O)Cn3cnc4ccccc43)[C@H](C)C2)cn1`, half-maximal inhibition in series [1] (IC50) was put at 4.7 µM.
Regarding `C[C@@H]1CN(c2sc(CO)nc2-c2nc3ccccc3[nH]2)CCN1C(=O)Cn1cnc2cccnc21`, the half-maximal inhibitory concentration (IC50) was 0.171 µM in series [3], > 10 µM in series [4], 19 µM in series [1] and 3.38 µM in series [5].
Turning to `CCOc1ncc(-c2nc(C(F)(F)F)sc2N2CCN(C(=O)Cn3nccc3C)[C@H](C)C2)cn1`, in series [2] (microsomes), the microsomal CLint at 1 µM came to 65 µL/min/mg. The half-inhibitory concentration (IC50) was 0.002 µM in series [3], 0.162 µM in series [4], 5.6 µM in series [1] and 0.289 µM in series [5].
